The record followed here is US20120040976A1, “SMALL MOLECULE IMMUNOMODULATORS FOR ALZHEIMER'S DISEASE” (HUMAN BIOMOLECULAR RESEARCH INSTITUTE, priority 2008, published 2012).

Molecules are shown by their SMILES.

One experiment deals with TLR4. Briefly: TLR4 gene expression by qPCR in U-937 human monocytic cells treated with curcumins plus Aβ. The format is cell-based. The settings on record: human monocytic cells (U-937), curcumin plus Aβ. The procedure:
Cell culture conditions for monocytic cell lines. Human and mouse monocyte cell lines are grown in RPMI-1640 medium with 10% fetal bovine serum (FBS), plus glutamine and pen/strep. For treatment with compounds (curcuminoids+/−Aβ), replicate sets of 0.5-1.0 mL cultures containing 1-2×10^6 cells are set up in the wells of 48-well tissue culture plates. Both replicate sets have at least one control well receiving no added curcuminoid to provide baseline expression controls for untreated, and Aβ-only treated cells. Remaining wells receive curcuminoid in a range of 10-fold serial dilutions in DMSO, typically from […] Cultures are incubated for 20-24 hours (“overnight”) at 37° C. in atmosphere with 5% CO2. After one overnight, to one of replicate sets of cultures is added Aβ (1-42) peptide to a final concentration of 5 μg/mL.
RNA isolation and cDNA synthesis. After the first overnight incubation in the presence of curcuminoid, cells from one replicate set of wells are collected by centifugation. RNAs are extracted from pelleted cells using miniprep column kits following manufacturer's protocol for animal cells. […] of total cellular RNA from each well is quantitated using a Nanodrop spectrophotometer, and first-strand total cDNA is prepared from 0.3-1.0 μg RNA by random-hexamer priming. Following the second 20 hr. incubation in the presence of Aβ, RNA extractions and cDNA synthesis are similarly performed.
Assay development. Gene-specific mRNA levels are determined using a real-time thermocycler, and by normalizing to expression of one or more control genes. Assays for quantifying mRNA levels are based on gene sequences reported in NCBI Genbank. PCR oligonucleotide primers are selected spanning introns to minimize the opportunity for amplication from any contaminating genomic DNA in the RNA preps. Oligonucleotides are typically tested and used at a concentration of 200 nM in qPCR reactions containing SYBR dye. Control reactions include template from cDNA synthesis reactions either + or − reverse transcriptase (RT), as well as no-template controls (ntc). All reactions are performed in triplicate. Reactions are typically run with 40 cycles of 95° C. (10 sec) and 58° C. (30 sec). Melt curves based on incremental 0.5° C. increases are determined for new assays to test for uniformity of amplified products. Reaction conditions are modified as needed depending on initial test results. ‘Working’ assays are selected based on clear RNA-dependent amplification and absence of product in ‘ntc’ reactions. The following assay primers are used: […]
qPCR reactions of cultured monocyte cDNAs. One μL total cellular cDNA per reaction is used in triplicate reactions for each test gene, and for each culture treatment. SYBR-Green reactions were run on a Continuous Fluorescence real-time thermocycler and analyzed. Cycle threshold (Ct) values are recorded for each replicate reaction, and are then averaged and normalized against mean Ct values from one or more control genes. Fold-expression differences relative to untreated cells are determined using the 2^−ΔΔCt method as previously described. […] Data are also evaluated for each gene with regard to sensitivity, maximally effective concentration of curcuminoid, response to Aβ, and overall magnitude of fold-expression changes. […]

The next experiment relates to MGAT3. Briefly: MGAT3 expression in response to oxidative stress (H2O2) in neuroblastoma cells. Format: cell-based, human. The following applies: H2O2, data not shown. As to the method:
Gene expression in response to oxidative stress. […] The neuroblastoma SHSY5Y and wtSOD^+ overexpressing cells were subjected to varying concentrations of hydrogen peroxide (H2O2; 0.5-5 mM) for varying times. After 1, 2, and 3 hours of incubation, cells were harvested, total RNAs were isolated, and prepared cDNAs were used in qPCR experiments to quantify normalized mRNA levels. MGAT3 expression in untransfected cells increased in relation to oxidative stress conditions, with peak expression (>200-fold increased) at 2-3 hours in the presence of 2.5 mM H2O2. Again, increased SOD1 expression appeared to potentiate MGAT3 expression, with higher maximal MGAT3 expression (>300-fold increased) observed in the wtSOD^+ line, and at lower H2O2 concentrations (e.g. 0.5 mM). […] Further, curcumins may potentiate the cellular response to oxidative stress and may therefore have a protective effect.

In experiment [1] the test system is cortical neurons in hAPP-transfected rat brain slices. Briefly: Rat brain slice AD model (hAPP-induced neurodegeneration). Format: cell-based. The settings on record: rat brain slices transfected with EYFP and hAPP, three concentrations, 72 hrs (FIG. 8). The source says:
A rodent brain slice model for AD has been developed where the expression of human APP by particle-mediated gene transfer (“biolistics”) leads to typical signs of neuronal dystrophy, and ultimately the degeneration and clearance of the cell body with a few days. Brain slice preparations offer a powerful experimental system because they preserve the three-dimensional tissue architecture and local environment of neurons and glia far better than dissociated cell culture. As such, drug lead candidates that show neuroprotective activity in brain-tissue based disease models have a much increased ability to predict efficacy in vivo and ultimately in the clinic.
Preparation of Brain Slice Explants. Cd Sprague-Dawley Rat Pups are Used at Postnatal day 10. Brains are cut into 250 μm coronal slices on a vibratome in chilled medium baths. Approximately 6 such slices can be cut from each rat brain; each are divided into “hemi-coronal” slices which are placed in individual 6-well transwell inserts. […]
Assessment of cortical neuron health. […] Representative images are captured using a digital camera on a fluorescence microscope. After 3 days, cortical neurons are scored. […] Statistical significance of the neuronal counts in compound-treated slices is evaluated by ANOVA analysis, followed by post hoc Dunnett's analysis at the p≦0.05 confidence level. […]

`O=C(/C=C(O)/C=C/c1ccc(O)cc1)/C=C/c1ccc(O)cc1` [Compound 1, 5-Hydroxy-1,7-bis-(4-hydroxy-phenyl)-hepta-1,4,6-trien-3-one, reference compound]: the “Relative gene expression TLR4, increased expression relative to control cells” value in the experiment on TLR4 was “+ ((+) <20-fold)”. Also, the “Effect on MGAT3 expression in response to oxidative stress” value in the experiment on MGAT3 was “enhance MGAT3 expression”. Moreover, the “Neuroprotective effect against hAPP-induced neurodegeneration” value in experiment [1] is “dose-dependent trend for AD related neuroprotection”.
